We go through 59 molecules from PubChem BioAssay AID743341 (Broad Institute, 2014).

Inconclusive results are not listed. Calls of active or inactive are those of the source.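 Rule for the calls: active = fitted curve of myotube length rescue reaches 40% at or below the top valid tested dose in every replicate test; inconclusive = replicate tests give mixed outcomes; inactive = every replicate test inactive, including effects in the opposite direction.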

Test system in one experiment: not listed separately
The experiment in a line: suppression of statin-driven myotube degradation – imaging, C2C12 myotubes, MHC immunostaining, dry powder, orthogonal assay for statin myotoxicity suppressor project, confirmation (AID 743341). Particulars: C2C12 myotubes + simvastatin, MHC imaging tube length, 48 h; at 18 µM (top of the series).
For the molecule `C[C@H](CO)N1C[C@H](C)[C@H](CN(C)Cc2ccc3c(c2)OCO3)Oc2ccc(NC(=O)CCCCCC(=O)Nc3ccccc3N)cc2CC1=O`, the rescue of myotube length was 19.7% (inactive).
Consider `C[C@H]1CN([C@@H](C)CO)C(=O)Cc2cc(NC(=O)CCCCCC(=O)Nc3ccccc3N)ccc2O[C@H]1CN(C)Cc1ccccc1`, for which the rescue of myotube length was 21.7% (inactive).

Staying with this experiment, now noted: C2C12 myotubes + simvastatin, MHC imaging tube length, 48 h; at 19.5 µM (top of the series).
`N#C[C@@H]1[C@@H](c2ccccc2-c2cccc(F)c2)[C@H](CO)N1C(=O)NC1CCCC1`: the rescue of myotube length was 10.7% (inactive).
`C[C@@H]1CN([C@H](C)CO)C(=O)Cc2cc(NS(=O)(=O)c3ccc(Cl)cc3)ccc2O[C@H]1CN(C)Cc1ccccc1`: the rescue of myotube length is 0.917% (inactive).
Same read-out and setting: the same measure for `CCCNC(=O)N1[C@H](CO)[C@H](c2ccccc2)[C@@H]1C#N`: 1.19% (inactive); for `COc1ccc(C#Cc2cnc3c(c2)C(=O)N([C@H](C)CO)C[C@H](C)[C@@H](CN(C)C(=O)Nc2cccc(OC)c2)O3)cc1`: 30.4% (inactive).
Take `N#C[C@@H]1[C@@H](c2ccc(-c3cccc(F)c3)cc2)[C@H](CO)N1C(=O)c1cccnc1`: the rescue of myotube length was 12.6% (inactive).
Take `C[C@@H]1CN([C@@H](C)CO)C(=O)c2cc(NS(=O)(=O)c3ccc(Cl)cc3)ccc2O[C@H]1CN(C)C(=O)Nc1cccc2ccccc12`: the rescue of myotube length is -1.68% (inactive).
Regarding `COc1ccc(S(=O)(=O)Nc2cccc3c2O[C@H](CN(C)C(=O)Nc2ccc(F)cc2)[C@H](C)CN([C@@H](C)CO)C3=O)cc1`, the rescue of myotube length is -2.59% (inactive).
`C[C@@H]1CN([C@H](C)CO)C(=O)Cc2cc(NC(=O)CCCCCC(=O)Nc3ccccc3N)ccc2O[C@@H]1CN(C)Cc1ccc(Oc2ccccc2)cc1`: the rescue of myotube length is -9.32% (inactive).
The same measure, in the same setting: the same measure for `CCCC#Cc1ccc([C@H]2[C@@H](C#N)N(S(=O)(=O)c3cccc(F)c3)[C@H]2CO)cc1`: 4.16% (inactive); for `C[C@@H]1CN([C@H](C)CO)C(=O)Cc2cc(NS(=O)(=O)c3cn(C)cn3)ccc2O[C@@H]1CN(C)Cc1ccc(Cl)c(Cl)c1`: 24% (inactive); for `N#C[C@H]1[C@@H](c2ccc(-c3cccc(F)c3)cc2)[C@@H](CO)N1C(=O)NC1CCCC1`: -4.89% (inactive).
Take `N#C[C@@H]1[C@@H](c2ccccc2-c2ccc(F)cc2)[C@H](CO)N1C(=O)NC1CCCC1`: the rescue of myotube length is 15.4% (inactive).
For the molecule `COc1ccc(S(=O)(=O)Nc2ccc3c(c2)CC(=O)N([C@H](C)CO)C[C@H](C)[C@@H](CN(C)Cc2ccc(Cl)c(Cl)c2)O3)cc1`, the rescue of myotube length is -14.2% (inactive).
On the same count and under the same terms, the same measure for `COc1ccc(CN(C)C[C@H]2Oc3ccc(NS(=O)(=O)c4ccc(Cl)cc4)cc3CC(=O)N([C@@H](C)CO)C[C@@H]2C)cc1`: -19% (inactive); for `C/C=C/c1ccc([C@H]2[C@@H](CO)N(C(=O)NC3CCCC3)[C@H]2C#N)cc1`: 12.4% (inactive).
As to `C[C@H](CO)N1C[C@H](C)[C@@H](CN(C)Cc2ccc(Cl)c(Cl)c2)Oc2ccc(NC(=O)C3CC3)cc2CC1=O`, the rescue of myotube length was -6.48% (inactive).
The same measure, in the same setting: the same measure for `CCCNC(=O)N1[C@H](C#N)[C@@H](c2ccc(C3=CCCCC3)cc2)[C@@H]1CO`: 22.8% (inactive); for `N#C[C@H]1[C@H](c2ccc(-c3cccc(F)c3)cc2)[C@H](CO)N1C(=O)NC1CCCC1`: 14.9% (inactive).
As for `N#C[C@@H]1[C@@H](c2ccc(C3=CCCCC3)cc2)[C@H](CO)N1C(=O)NC1CCCC1`, the rescue of myotube length is 9.82% (inactive).
The same measure, in the same setting: the same measure for `N#C[C@@H]1[C@H](c2ccc(-c3cccc(F)c3)cc2)[C@@H](CO)N1C(=O)NC1CCCC1`: 12.9% (inactive).
Still for that read-out and setting: the same measure for `N#C[C@H]1[C@@H](c2ccc(-c3cccc(F)c3)cc2)[C@H](CO)N1C(=O)NC1CCCC1`: 8.46% (inactive); for `COc1ccc(S(=O)(=O)Nc2ccc3c(c2)CC(=O)N([C@H](C)CO)C[C@@H](C)[C@H](CN(C)CC2CCCCC2)O3)cc1`: -8.93% (inactive); for `Cc1ccc(S(=O)(=O)N(C)C[C@@H]2Oc3ccc(NS(=O)(=O)c4ccc(Cl)cc4)cc3C(=O)N([C@H](C)CO)C[C@@H]2C)cc1`: 3.15% (inactive).
With `Cc1noc(C)c1S(=O)(=O)Nc1ccc2c(c1)CC(=O)N([C@H](C)CO)C[C@H](C)[C@@H](CN(C)Cc1ccc(C(F)(F)F)cc1)O2`, the rescue of myotube length is -1.01% (inactive).
Regarding `Cc1ccc(S(=O)(=O)Nc2ccc3c(c2)CC(=O)N([C@@H](C)CO)C[C@@H](C)[C@H](CN(C)Cc2ccc(-c4ccccc4)cc2)O3)cc1`, the rescue of myotube length was -2.54% (inactive).
Take `C[C@H]1CN([C@@H](C)CO)C(=O)c2cc(NC(=O)Nc3cccc4ccccc34)ccc2O[C@H]1CN(C)Cc1ccc(C(=O)Nc2ccccc2N)cc1`: the rescue of myotube length is 13.4% (inactive).
For `C[C@H](CO)N1C[C@H](C)[C@@H](CN(C)Cc2ccc(Oc3ccccc3)cc2)Oc2c(NC(=O)Nc3cccc4ccccc34)cccc2C1=O`, the rescue of myotube length was 14.7% (inactive).
The same measure, in the same setting: the same measure for `CN(C)C(=O)c1cccc(-c2ccc([C@@H]3[C@@H](C#N)N(C(=O)C4CCCC4)[C@@H]3CO)cc2)c1`: 13.3% (inactive); for `N#C[C@@H]1[C@@H](c2ccc(C#Cc3cccnc3)cc2)[C@@H](CO)N1C(=O)C1CCCC1`: 5.74% (inactive); for `COc1ccc(-c2ccc([C@@H]3[C@@H](C#N)N(C(=O)NC4CCCC4)[C@H]3CO)cc2)cc1`: 7.03% (inactive).
The same measure, in the same setting: the same measure for `N#C[C@@H]1[C@@H](c2ccc(-c3cccc(F)c3)cc2)[C@@H](CO)N1C(=O)NC1CCCC1`: 3.2% (inactive); for `COc1ccc(C#Cc2cnc3c(c2)C(=O)N([C@H](C)CO)C[C@H](C)[C@H](CN(C)Cc2ccccc2)O3)cc1OC`: -10.4% (inactive).
As for `N#C[C@H]1[C@H](c2ccc(C#CCC3CCCC3)cc2)[C@@H](CO)N1C(=O)CN1CCOCC1`, the rescue of myotube length was 14.6% (inactive).
Still for that read-out and setting: the same measure for `O=C(C[C@H]1CC[C@@H]2[C@H](COC[C@H](O)CN2CCC(F)(F)F)O1)NCc1ccc(Oc2ccccc2)cc1`: 5.97% (inactive); for `COc1ccc(S(=O)(=O)N(C)C[C@H]2Oc3c(NC(=O)Nc4ccccc4)cccc3C(=O)N([C@H](C)CO)C[C@H]2C)cc1`: 3.68% (inactive).
Turning to `O=C(C[C@H]1CC[C@@H]2[C@H](COC[C@@H](O)CN2Cc2ccc(Oc3ccccc3)cc2)O1)N1CCCCC1`, the rescue of myotube length was 15.6% (inactive).
Take `CN1C(=O)c2cc(NC(=O)c3ccc(F)c(F)c3)ccc2OC[C@H]2O[C@@H](CC(=O)Nc3ccc4c(c3)COC4)CC[C@@H]21`: the rescue of myotube length was 12.6% (inactive).
Take `N#C[C@H]1[C@H](c2ccc(C#Cc3ccc(F)cc3)cc2)[C@H](CO)N1c1nc(-c2ccccc2)cs1`: the rescue of myotube length is 25.1% (inactive).

Staying with this experiment, now noted: C2C12 myotubes + simvastatin, MHC imaging tube length, 48 h; at 21 µM (top of the series).
Turning to `N#C[C@@H]1[C@@H](c2ccccc2)[C@H](CO)N1S(=O)(=O)c1ccc(-c2ccccc2)cc1`, the rescue of myotube length was 13.9% (inactive).
Take `C[C@@H]1CN([C@@H](C)CO)C(=O)c2cc(NC(=O)Nc3cccc4ccccc34)ccc2O[C@@H]1CN(C)Cc1ccc(C(=O)Nc2ccccc2N)cc1`: the rescue of myotube length is 20.8% (inactive).
Regarding `C[C@@H]1CN([C@@H](C)CO)C(=O)Cc2cc(NC(=O)CCCCCC(=O)Nc3ccccc3N)ccc2O[C@@H]1CN(C)Cc1ccc(Oc2ccccc2)cc1`, the rescue of myotube length is -5.63% (inactive).
Take `N#C[C@H]1N[C@@H](CO)[C@@H]1c1ccc(-c2cccc(F)c2)cc1`: the rescue of myotube length is 8.43% (inactive).
Regarding `Cc1noc(C)c1S(=O)(=O)Nc1ccc2c(c1)CC(=O)N([C@H](C)CO)C[C@@H](C)[C@@H](CN(C)Cc1ccc(-c3ccccc3)cc1)O2`, the rescue of myotube length is -14.9% (inactive).
In the case of `CCS(=O)(=O)N1[C@H](C#N)[C@@H](c2ccc(-c3cccc(F)c3)cc2)[C@@H]1CO`, the rescue of myotube length is 16.6% (inactive).
Consider `CC(C)CC#Cc1cnc2c(c1)C(=O)N([C@H](C)CO)C[C@H](C)[C@@H](CN(C)C(=O)Cc1ccccc1)O2`, for which the rescue of myotube length is -0.121% (inactive).
Regarding `COCC(=O)N1[C@H](C#N)[C@@H](c2ccc(-c3cccc(F)c3)cc2)[C@@H]1CO`, the rescue of myotube length was 4.32% (inactive).
The same measure, in the same setting: the same measure for `CCCNC(=O)N1[C@@H](C#N)[C@@H](c2ccc(-c3ccccc3F)cc2)[C@@H]1CO`: -2.07% (inactive); for `N#C[C@@H]1[C@@H](c2ccc(C#CC3CCCC3)cc2)[C@H](CO)N1S(=O)(=O)c1ccccc1`: 4.55% (inactive).
The same measure, in the same setting: the same measure for `C[C@H]1CN([C@@H](C)CO)C(=O)Cc2cc(NS(=O)(=O)c3ccc(Cl)cc3)ccc2O[C@@H]1CN(C)CC1CCCCC1`: -32.7% (inactive).

The subject of a further experiment is C2C12 myotubes + simvastatin, MHC imaging tube length, 48 h. The experiment is described as above.
Settings: not given
`C[C@@H]1CN([C@@H](C)CO)C(=O)c2cc(NC(=O)Cc3cn(C)c4ccccc34)ccc2O[C@H]1CN(C)Cc1ccc(C(=O)Nc2ccccc2N)cc1`: the AC40 is 10.9 µM.
On the same count and under the same terms, the same measure for `C[C@H]1CN([C@@H](C)CO)S(=O)(=O)c2ccc(C#CC3CC3)cc2O[C@H]1CN(C)C(=O)Nc1cc(F)ccc1F`: 19.5 µM.
As to `C[C@H](CO)N1C[C@H](C)[C@H](CN(C)CC2CCCCC2)Oc2ccc(NC(=O)CCCCCC(=O)Nc3ccccc3N)cc2CC1=O`, the AC40 was 13.2 µM.
As for `CC(C)=CCC/C(C)=C/CC/C(C)=C/CC/C(C)=C/CO`, the AC40 was 4.25 µM.
The same measure, in the same setting: the same measure for `C[C@@H]1CN([C@H](C)CO)C(=O)c2cccc(NC(=O)c3nc4ccccc4s3)c2O[C@@H]1CN(C)Cc1ccc(C(=O)Nc2ccccc2N)cc1`: 1.79 µM.
On to `C[C@H]1CN([C@@H](C)CO)C(=O)Cc2cc(NC(=O)CCCCCC(=O)Nc3ccccc3N)ccc2O[C@H]1CN(C)CC1CCCCC1`, for which the AC40 was 8.03 µM.
Same read-out and setting: the same measure for `C[C@H](CO)N1C[C@H](C)[C@H](CN(C)Cc2ccc(C(=O)Nc3ccccc3N)cc2)Oc2ccc(NC(=O)Nc3ccc(F)cc3)cc2CC1=O`: 0.655 µM.
Regarding `N#C[C@@H]1[C@@H](c2ccc(-c3ccc(F)cc3)cc2)[C@H](CO)N1C(=O)Cc1ccccc1`, the AC40 was 15 µM.
